Laboratory results: the supplement of paper PMC10307832

Compound: Cc1cc(Nc2cc(N3CCN(C)CC3)nc(Sc3ccc(NC(=O)C4CC4)cc3)n2)n[nH]1 [Tozasertib] + CC1(C)CCC(c2ccc(Cl)cc2)=C(CN2CCN(c3ccc(C(=O)NS(=O)(=O)c4ccc(N[C@H](CCN5CCOCC5)CSc5ccccc5)c(S(=O)(=O)C(F)(F)F)c4)cc3)CC2)C1 [Navitoclax] (partner 0.5 µM)
Assay: relative viability (nuclei count vs DMSO), 5 days (fraction); higher = more cells survive
Method in brief: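 Relative viability is defined as nuclei in treated wells over nuclei in vehicle wells. Duplicate plates were run and medians reported. Lung cancer cell lines in 1536-well plates were dosed by pin tool one day after seeding, with one drug or with a fixed anchor-drug dose plus five library-drug doses (not always all listed) in √10 steps, and nuclei were counted after 5 days.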

Cell Line | relative viability (first compound 0.004 µM) | relative viability (first compound 0.01265 µM) | relative viability (first compound 0.04 µM) | relative viability (first compound 0.1265 µM)
EPLC-272H | 1.1 | 1.17 | 1.08 | 
UMC-11 | 0.381 | 0.295 | 0.303 | 0.13
NCI-H1793 | 0.492 | 0.501 | 0.453 | 0.33
NCI-H2405 | 0.795 | 0.95 | 0.671 | 0.871
NCI-H1993 | 0.901 | 0.884 | 0.927 | 0.651
NCI-H322M | 1.18 | 1.28 | 1.24 | 1.35
NCI-H1651 | 1.17 | 1.05 | 1.18 | 1.07
HCC-44 | 1.04 | 0.977 | 0.985 | 0.955
NCI-H2085 | 1.14 | 1.12 | 1.13 | 0.816
RERF-LC-KJ | 0.994 | 0.93 | 0.804 | 0.997
NCI-H1355 | 0.867 | 0.917 | 1.15 | 0.768
LU99A | 0.739 | 0.636 | 0.715 | 0.414
LOU-NH91 | 0.426 | 0.704 | 0.726 | 0.665
NCI-H3122 | 0.996 | 1 | 1.04 | 1.05
LK-2 | 0.878 | 0.736 | 0.981 | 0.392
ChaGo-K-1 | 1.13 | 0.946 | 1.2 | 0.3
HOP-62 | 1.06 | 0.946 | 1.08 | 0.99
201T | 1.16 | 1.22 | 1.23 | 1.16
LCLC-97TM1 |  | 0.434 | 0.466 | 0.242
NCI-H2023 | 1.04 | 0.983 | 1.05 | 0.924
COR-L23 | 1 | 0.897 | 0.954 | 0.757
NCI-H460 | 1.18 | 1.03 | 1.46 | 0.788

Cell Line | relative viability (first compound 0.004 µM) | relative viability (first compound 0.01265 µM) | relative viability (first compound 0.04 µM) | relative viability (first compound 0.1265 µM)
H3255 | 0.336 | 0.594 | 0.569 | 0.463
SW 1573 | 1.1 | 1.06 | 1.15 | 0.816
NCI-H23 | 0.842 | 0.867 | 0.805 | 0.472
NCI-H1755 | 0.978 | 0.977 | 1.02 | 0.875
HCC-15 | 0.692 | 0.692 | 0.768 | 0.641
NCI-H1915 | 0.767 | 0.765 | 0.773 | 0.623
NCI-H1650 |  | 0.981 | 1.24 | 0.936
LXF-289 | 0.964 | 0.889 | 0.807 | 0.588
COR-L 105 | 0.787 | 0.644 | 0.932 | 0.542
NCI-H2126 | 0.842 | 0.802 | 0.963 | 0.865
NCI-H1975 | 1.14 | 1.2 | 1.23 | 1.1
HCC-366 | 1.09 | 0.945 | 1.17 | 0.752
NCI-H1703 | 1.35 | 1.14 | 1.26 | 0.366
A549 | 1.26 | 1.29 | 1.14 | 0.179
PC-3 [JPC-3] | 0.579 | 0.699 | 0.935 | 0.756
NCI-H1944 | 0.96 | 1.05 | 1.02 | 0.695
NCI-H727 | 0.481 | 0.5 | 0.489 | 0.242
SK-LU-1 | 0.894 | 0.939 | 0.981 | 0.635
A-427 |  | 0.979 | 0.995 | 0.755
NCI-H2087 | 1.01 | 0.872 | 1.1 | 0.644
HARA | 1.17 | 1.07 | 1.15 | 1.07
NCI-H1734 | 0.851 | 0.761 | 0.834 | 0.504

Cell Line | relative viability (first compound 0.004 µM) | relative viability (first compound 0.01265 µM) | relative viability (first compound 0.04 µM) | relative viability (first compound 0.1265 µM)
NCI-H2170 | 0.556 | 0.565 | 0.583 | 0.557
SK-MES-1 | 1.17 | 1.23 | 1.4 | 1.02
NCI-H596 | 1.05 | 0.815 | 1.07 | 0.827
BEN | 0.0692 | 0.0723 | 0.0504 | 0.0587
HCC-78 | 0.822 | 0.633 |  | 0.539
NCI-H2228 | 0.717 |  | 1.23 | 1.06
EKVX | 0.932 | 0.939 | 1.06 | 0.914
NCI-H2009 | 1.21 | 1.16 | 1.17 | 1.17
NCI-H520 | 1.08 | 1.03 | 1.17 | 0.602
PC-14 | 1.03 |  | 1.01 | 
EMC-BAC-2 | 1.18 | 1.14 | 1.25 | 0.812
HCC-827 | 0.973 | 1.09 | 1.03 | 0.925
NCI-H1437 | 1.05 | 0.974 | 1.09 | 0.87
NCI-H647 | 1.06 | 1.15 | 1.03 | 0.882
LC-2-ad | 0.412 | 0.431 | 0.396 | 0.147
NCI-H1395 | 1.28 | 1.13 | 1.06 | 0.825
CAL-12T | 1.33 | 1.14 | 1.31 | 1.08
NCI-H1792 | 0.681 | 0.481 |  | 0.418
NCI-H441 | 0.761 | 0.543 | 0.483 | 0.55
NCI-H1666 | 0.948 | 0.863 | 0.918 | 0.87
NCI-H838 | 1.26 | 1.14 | 1.4 | 1.14
NCI-H2347 | 0.921 | 0.761 | 0.901 | 0.755
